Reference: patent publication US20240382498A1, “NOVEL INHIBITOR OF HYPE-MEDIATED AMPYLATION” (Purdue Research Foundation, priority 2023, published 2024)

Legend:
HeLa cells = assay: MTT cell viability assay, HeLa; assay type: cell-based, human; details: 48 hr
Method: The cell lines were procured from ATCC (American Type Culture Collection) and cultured in DMEM (Dulbecco's Modified Eagle Medium) supplemented with 10% FBS (fetal bovine serum) without antibiotics. Cells were grown and maintained in a humidified incubator at 37° C. with 5% CO2. For the MTT assay, cells were trypsinized and harvested at ˜80-90% confluency and seeded in 96 well plates at a density of 1×10^4 cells per well. The seeded cells were incubated overnight and treated with 1 μM, 3 μM, 5 μM, 7 μM, 10 μM, 20 μM, 30 μM or 50 μM (final concentration) of DMSO-dissolved compound for 48 hr. To rule out vehicle induced toxicity, only 0.5% of final DMSO concentration was added to the cells. Post-incubation, the compound treatment was removed and replaced with 0.5 mg/ml (final concentration) of freshly prepared MTT solution. After incubating for 3.5 hr at 37° C., 5% CO2 humidified incubator, MTT was carefully removed without aspirating the formazan crystals and replaced with equivalent volume of DMSO to dissolve the formazan crystals. The plates were then read using a multi-plate reader at 570 nm. The absorbance was recorded and % viability was calculated according to the following equation:
[formula] • where, Abt is the absorbance of compound treated cells and Abc is the absorbance of control cells.

[1] = biological target: T1, E234G HYPE AMPylation of T229A BiP (Homo sapiens, UniProt Q9BVA6, E234G); assay: Radioactive in-gel T229A BiP AMPylation assay with E234G HYPE and α-32P-ATP; assay type: biochemical; details: 10 μM compound
T1 construct: Δ102 (aa 103-458) HYPE constructs (WT, E234G, and E234G/H363A); His6-SUMO (cleaved yes); made in house; host or cells: E. coli BL21-DE3-RILP
T1 sequence (Q9BVA6 103-458 E234G): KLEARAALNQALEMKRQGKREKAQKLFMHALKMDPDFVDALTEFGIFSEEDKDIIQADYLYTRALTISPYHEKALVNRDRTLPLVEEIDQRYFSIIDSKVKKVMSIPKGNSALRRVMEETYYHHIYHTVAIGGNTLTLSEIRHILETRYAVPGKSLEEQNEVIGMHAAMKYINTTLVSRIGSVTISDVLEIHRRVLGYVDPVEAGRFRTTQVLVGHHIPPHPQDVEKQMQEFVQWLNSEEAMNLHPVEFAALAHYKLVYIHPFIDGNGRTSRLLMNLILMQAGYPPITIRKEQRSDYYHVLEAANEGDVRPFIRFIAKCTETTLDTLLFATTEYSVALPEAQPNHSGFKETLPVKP
Method: 1 μM of HYPE (final concentration) and (where specified) 5 μM of T229A BiP (final concentration) were preincubated with 10 μM DMSO-dissolved compound (final concentration) or equivalent volume of 100% DMSO at room temperature for 10 min in HTS Buffer. Reactions were run for 10 min at 30° C. and began with the addition of 0.01 μCi/μL α-32P-ATP (final concentration). All reactions were performed according to our previously described protocol for in vitro radioactive AMPylation assays19. Where specified, 5 μM of T229A BiP (final concentration) was added to reactions before the addition of compound.

E234G HYPE = biological target: T2, E234G HYPE (Homo sapiens, UniProt Q9BVA6, E234G); assay: Fluorescence in-gel autoAMPylation assay with E234G HYPE and Fl-ATP; assay type: biochemical; details: 10 μM compound
T2 construct: Δ102 (aa 103-458) HYPE constructs (WT, E234G, and E234G/H363A); His6-SUMO (cleaved yes); made in house; host or cells: E. coli BL21-DE3-RILP
T2 sequence (Q9BVA6 103-458 E234G): T1 sequence (Q9BVA6 103-458 E234G)
Method: 1 μM of WT HYPE (final concentration) was preincubated with 10 μM DMSO-dissolved compound (final concentration) or equivalent volume of 100% DMSO at room temperature for 10 min. Reactions were run for 20 hr at 30° C. in the dark and began with the addition of 1 μM Fl-ATP (final concentration). Alternatively, E234G HYPE AMPylation reactions were run at 10 min due to its hyperactivity. All other parameters were held constant. All reactions were performed HTS Buffer (50 mM HEPES, 1 mM MgCl2, 0.1% Triton X-100, pH 7.50). All reactions were quenched with 4×SDS loading dye, boiled for 5 min at 95° C., and samples were run on 12% SDS-PAGE gels. Gels were imaged on a Typhoon 9500 FLA imager (General Electric) for fluorescence at 473 nm. Imaged gels were then stained with Coomassie Brilliant Blue, destained, and imaged for protein concentration. Where specified, 5 μM of T229A BiP (final concentration) was added to reactions before the addition of compound.

SMILES: c1cn(-c2ccc(-c3nnc(-c4ccoc4)o3)cn2)cn1 [Compound I2.10]
- cell viability (HeLa cells; HeLa (so in the source), 50 μM): ~60%
- cell viability (HeLa cells; HeLa, up to 50 μM): 100%
- inhibition of T229A BiP AMPylation in gel [1]: inhibitory efficacy against BiP AMPylation was reproducible
- inhibition of E234G HYPE autoAMPylation in gel (E234G HYPE): consistently perturbs HYPE autoAMPylation
